Earlier results, collected in patent US20090239878A1, “COMBINATIONS OF (A) AN ATP-COMPETITIVE INHIBITOR OF C-ABL KINASE ACTIVITY WITH (B) TWO OR MORE OTHER ANTINEOPLASTIC AGENTS” (priority 2002, published 2009).

Key:
c-kit receptor = c-kit receptor (Homo sapiens, UniProt P10721); conditions: preclinical studies
[1] = tested on: platelet-derived growth factor receptor; conditions: preclinical studies
[2] = tested on: CEM/ara-C/I monoclonal clone; conditions: ara-C resistant cell line versus CEM/0

Sequence of c-kit receptor (P10721 26-976): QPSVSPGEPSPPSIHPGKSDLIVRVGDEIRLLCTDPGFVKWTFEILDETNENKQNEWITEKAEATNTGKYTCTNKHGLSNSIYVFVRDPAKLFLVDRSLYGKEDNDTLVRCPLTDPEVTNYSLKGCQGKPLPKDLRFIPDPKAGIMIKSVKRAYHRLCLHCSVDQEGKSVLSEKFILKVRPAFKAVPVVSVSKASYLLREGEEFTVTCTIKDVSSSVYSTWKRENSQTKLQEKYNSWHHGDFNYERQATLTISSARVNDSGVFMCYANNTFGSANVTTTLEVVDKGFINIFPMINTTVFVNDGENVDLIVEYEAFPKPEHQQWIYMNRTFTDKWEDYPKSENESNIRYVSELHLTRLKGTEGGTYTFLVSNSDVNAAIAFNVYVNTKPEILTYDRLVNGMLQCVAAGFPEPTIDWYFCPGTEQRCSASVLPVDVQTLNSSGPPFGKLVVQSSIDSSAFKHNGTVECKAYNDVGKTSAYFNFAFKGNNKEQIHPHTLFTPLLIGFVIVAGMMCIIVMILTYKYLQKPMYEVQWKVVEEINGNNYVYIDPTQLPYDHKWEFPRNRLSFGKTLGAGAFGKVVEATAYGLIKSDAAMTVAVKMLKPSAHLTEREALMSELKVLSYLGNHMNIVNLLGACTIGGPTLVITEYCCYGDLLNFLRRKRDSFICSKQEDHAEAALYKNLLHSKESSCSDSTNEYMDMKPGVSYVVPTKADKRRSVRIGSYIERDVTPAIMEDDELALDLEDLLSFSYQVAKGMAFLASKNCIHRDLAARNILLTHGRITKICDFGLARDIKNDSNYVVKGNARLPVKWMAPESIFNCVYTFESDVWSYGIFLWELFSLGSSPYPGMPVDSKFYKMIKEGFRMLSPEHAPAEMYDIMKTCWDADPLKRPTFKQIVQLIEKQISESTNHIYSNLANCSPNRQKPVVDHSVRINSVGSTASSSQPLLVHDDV

Row | Molecule | inhibition of kinase activity (c-kit receptor) | inhibition of kinase activity [1] | sensitivity to ara-C relative to wild type [2]
1 | N-{5-[4-(4-methyl-piperazino-methyl)-benzoylamido]-2-methylphenyl}-4-(3-pyridyl)-2-pyrimidine-amine [STI571] | inhibits the kinase activities | inhibits the kinase activities | –
2 | Nc1ccn([C@@H]2O[C@H](CO)[C@@H](O)[C@@H]2O)c(=O)n1 [ara-C, cytosine arabinoside] | – | – | less than 1 % of the wild type CEM/0 cell line
